Data published in patent US10752624B2, “Kinase inhibitors” (Origenis GmbH, priority 2012, dated 2020).

What follows are compounds tested against LRRK2 (Homo sapiens, UniProt Q5S007) (assay: LRRK2-LRRK2 G2019S-Assay (LanthaScreen Eu Kinase Binding Assay)). Details: 5 nM LRRK2, 10 nM tracer 236, 2 nM EU-Anti-GST antibody, 1 h at RT; read-out: LRRK2 Activities: IC50.
Method: In the assay LanthaScreen™ Eu Kinase Binding Assay by Invitrogen Corporation (Carlsbad) the effect of invention of a compound on the phosphorylation is determined by measurement of fluorescence intensity emission ratio based on the binding and displacement of a proprietary, Alexa Fluor® 647-labeled, ATP-competitive kinase inhibitor scaffold (kinase tracer) to the kinase of interest. Binding of the tracer to the kinase is detected using a europium-labeled anti-tag antibody, which binds to the kinase of interest. Simultaneous binding of both the tracer and antibody to the kinase results in a high degree of FRET (fluorescence resonance energy transfer) from the europium (Eu) donor fluorophore to the Alexa Fluor® 647 acceptor fluorophore on the kinase tracer. Binding of an inhibitor to the kinase competes for binding with the tracer, resulting in a loss of FRET. The fluorescence intensity ratio is directly proportional to the amount of peptide phosphorylation.
To the wells of an 384 well small volume plate (Greiner, Frickenhausen) are added (i) the compound under test in 5% DMSO/distilled water (5 μl), (ii) 5 μl of the kinase antibody mixture resulting in a final concentration 5 nM LRRK2 or their mutants, 2 nM EU-Anti-GST antibody in 1× kinase buffer A. The reaction was started with addition of (iii) 5 μl resulting in a final concentration of 10 nM tracer 236. The assay plate was incubated at RT for 1 h and fluorescence intensity readings were collected using a TECAN M1000 at two wavelengths of λex 340/λem 615 nm and λex 340/λem 665 nm with a delay time of 100 μs and an integration time of 200 μs after 60 minutes. The emission ratio was calculated by division of the acceptor/tracer emission ([…]) by the antibody/donor emission ([…]). The inhibitor concentration was plotted versus the emission ratio to determine the IC50 using XLFit 5.0 (IDBS, Guildford) to fit to a sigmoidal dose response curve with a variable slope.

LRRK2, sequence (Q5S007 970-2527 limits assumed): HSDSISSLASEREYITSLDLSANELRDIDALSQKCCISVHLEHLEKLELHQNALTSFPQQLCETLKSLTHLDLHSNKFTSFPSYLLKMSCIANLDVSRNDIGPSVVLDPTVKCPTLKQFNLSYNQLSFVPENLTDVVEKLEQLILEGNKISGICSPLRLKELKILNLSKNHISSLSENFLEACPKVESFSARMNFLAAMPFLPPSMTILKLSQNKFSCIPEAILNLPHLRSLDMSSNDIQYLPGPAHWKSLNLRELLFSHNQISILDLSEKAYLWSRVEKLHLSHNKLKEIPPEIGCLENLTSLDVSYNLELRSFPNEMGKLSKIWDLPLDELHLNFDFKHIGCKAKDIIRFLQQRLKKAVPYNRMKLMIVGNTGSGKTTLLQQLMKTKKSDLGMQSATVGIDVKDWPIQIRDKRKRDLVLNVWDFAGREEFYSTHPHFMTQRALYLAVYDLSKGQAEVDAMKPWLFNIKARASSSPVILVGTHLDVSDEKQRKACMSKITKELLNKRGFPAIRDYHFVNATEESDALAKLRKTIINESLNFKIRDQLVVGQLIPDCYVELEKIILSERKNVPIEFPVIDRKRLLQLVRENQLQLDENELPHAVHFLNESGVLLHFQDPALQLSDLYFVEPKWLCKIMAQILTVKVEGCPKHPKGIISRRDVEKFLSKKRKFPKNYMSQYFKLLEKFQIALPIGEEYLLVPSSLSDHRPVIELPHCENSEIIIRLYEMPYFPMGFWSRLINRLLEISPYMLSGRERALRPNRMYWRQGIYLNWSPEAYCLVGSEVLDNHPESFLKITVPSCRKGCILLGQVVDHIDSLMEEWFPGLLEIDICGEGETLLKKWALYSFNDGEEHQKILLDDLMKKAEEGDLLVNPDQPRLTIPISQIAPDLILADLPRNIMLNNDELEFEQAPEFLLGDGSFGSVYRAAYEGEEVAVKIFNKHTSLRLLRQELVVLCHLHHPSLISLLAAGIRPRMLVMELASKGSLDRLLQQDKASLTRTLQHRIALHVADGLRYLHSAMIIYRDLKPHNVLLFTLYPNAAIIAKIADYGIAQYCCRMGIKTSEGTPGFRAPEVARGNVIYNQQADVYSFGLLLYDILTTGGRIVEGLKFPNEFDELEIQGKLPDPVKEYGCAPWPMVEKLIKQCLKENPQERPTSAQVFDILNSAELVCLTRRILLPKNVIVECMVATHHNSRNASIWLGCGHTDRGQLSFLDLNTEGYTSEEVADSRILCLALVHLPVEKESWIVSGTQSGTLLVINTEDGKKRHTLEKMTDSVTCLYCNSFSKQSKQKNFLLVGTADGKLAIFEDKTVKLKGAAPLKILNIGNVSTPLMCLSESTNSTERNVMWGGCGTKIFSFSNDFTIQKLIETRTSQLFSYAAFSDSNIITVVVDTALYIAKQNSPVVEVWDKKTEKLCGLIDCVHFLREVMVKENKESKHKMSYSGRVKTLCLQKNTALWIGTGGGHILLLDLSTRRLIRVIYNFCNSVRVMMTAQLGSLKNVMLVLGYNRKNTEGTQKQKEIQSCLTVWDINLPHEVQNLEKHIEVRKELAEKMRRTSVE

| SMILES | IC50 [nM] |
| --- | --- |
| CC(=O)N1CCN(c2ccc(Nc3nc4c(F)cccc4c4cn[nH]c34)cc2)CC1 [Example 53, 1-(4-(4-((6-fluoro-3H-pyrazolo[3,4-c]quinolin-4-yl)amino)phenyl)piperazin-1-yl)ethan-1-one] | 100 to 1000 |
| COc1cccc2nc(Nc3ccc(-c4ncco4)cc3)c3[nH]ncc3c12 [Example 58, 9-methoxy-N-(4-(oxazol-2-yl)phenyl)-3H-pyrazolo[3,4-c]quinolin-4-amine] | 100 to 1000 |
| COc1cccc2nc(Nc3ccc(N4CCN(S(C)(=O)=O)CC4)cc3)c3[nH]ncc3c12 [Example 59, 9-methoxy-N-(4-(4-(methylsulfonyl)piperazin-1-yl)phenyl)-3H-pyrazolo[3,4-c]quinolin-4-amine] | 10 to 100 |
| COc1cccc2nc(Nc3ccc(N4CCOCC4=O)cc3)c3[nH]ncc3c12 [Example 60, 4-(4-((9-methoxy-3H-pyrazolo[3,4-c]quinolin-4-yl)amino)phenyl)morpholin-3-one] | 100 to 1000 |
| COc1cccc2nc(Nc3ccc(C(=O)N4CCCC4)cc3)c3[nH]ncc3c12 [Example 61, (4-((9-methoxy-3H-pyrazolo[3,4-c]quinolin-4-yl)amino)phenyl)(pyrrolidin-1-yl)methanone] | 10 to 100 |
| COc1ccc(Nc2nc3ccc(S(C)(=O)=O)cc3c3cn[nH]c23)cc1OC [Example 63, N-(3,4-dimethoxyphenyl)-8-(methylsulfonyl)-3H-pyrazolo[3,4-c]quinolin-4-amine] | 10 to 100 |
| COc1cccc2nc(Nc3ccc(N4CCCC4=O)cc3)c3[nH]ncc3c12 [Example 68, 1-(4-((9-methoxy-3H-pyrazolo[3,4-c]quinolin-4-yl)amino)phenyl)pyrrolidin-2-one] | 10 to 100 |
| COc1cccc2nc(Nc3ccc(C(=O)N4CCN(C)CC4)cc3)c3[nH]ncc3c12 [Example 69, (4-((9-methoxy-3H-pyrazolo[3,4-c]quinolin-4-yl)amino)phenyl)(4-methylpiperazin-1-yl)methanone] | 10 to 100 |
| COc1cccc2nc(Nc3ccc(N4CCOCC4)c(C#N)c3)c3[nH]ncc3c12 [Example 71, 5-((9-methoxy-3H-pyrazolo[3,4-c]quinolin-4-yl)amino)-2-morpholinobenzonitrile] | 10 to 100 |
| COc1ccc(Nc2nc3ccc(C)cc3c3cn[nH]c23)cc1OC [Example 72, N-(3,4-dimethoxyphenyl)-8-methyl-3H-pyrazolo[3,4-c]quinolin-4-amine] | 100 to 1000 |
| COc1ccc2nc(Nc3ccc(-c4nnc(S)o4)cc3)c3n[nH]cc3c2c1 [Example 84, 5-(4-((8-methoxy-2H-pyrazolo[3,4-c]quinolin-4-yl)amino)phenyl)-1,3,4-oxadiazole-2-thiol] | 10 to 100 |
| COc1ccc2nc(Nc3ccc(N(C)C)nc3)c3n[nH]cc3c2c1 [Example 87, N5-(8-methoxy-2H-pyrazolo[3,4-c]quinolin-4-yl)-N2,N2-dimethylpyridine-2,5-diamine] | 100 to 1000 |
| Cc1cccc2nc(Nc3cccc(S(C)(=O)=O)c3)c3[nH]ncc3c12 [Example 88, 9-methyl-N-(3-(methylsulfonyl)phenyl)-3H-pyrazolo[3,4-c]quinolin-4-amine] | 100 to 1000 |
| Cc1cccc2nc(Nc3ccc(N4CCOCC4)cc3)c3[nH]ncc3c12 [Example 89, 9-methyl-N-(4-morpholinophenyl)-3H-pyrazolo[3,4-c]quinolin-4-amine] | 100 to 1000 |
| COc1ccc2nc(Nc3ccc(N4CCOCC4)c(S(C)(=O)=O)c3)c3n[nH]cc3c2c1 [Example 90, 8-methoxy-N-(3-(methylsulfonyl)-4-morpholinophenyl)-2H-pyrazolo[3,4-c]quinolin-4-amine] | 100 to 1000 |
| COc1ccc2nc(Nc3ccc(N4CCN(C(C)=O)CC4)nc3)c3n[nH]cc3c2c1 [Example 91, 1-(4-(5-((8-methoxy-2H-pyrazolo[3,4-c]quinolin-4-yl)amino)pyridin-2-yl)piperazin-1-yl)ethan-1-one] | 100 to 1000 |
| CS(=O)(=O)c1cccc2nc(Nc3ccc(N4CCOCC4)cc3)c3[nH]ncc3c12 [Example 92, 9-(methylsulfonyl)-N-(4-morpholinophenyl)-3H-pyrazolo[3,4-c]quinolin-4-amine] | < 10 |
| CC(=O)N1CCN(c2ccc(Nc3nc4cccc(S(C)(=O)=O)c4c4cn[nH]c34)cc2)CC1 [Example 93, 1-(4-(4-((9-(methylsulfonyl)-3H-pyrazolo[3,4-c]quinolin-4-yl)amino)phenyl)piperazin-1-yl)ethan-1-one] | 10 to 100 |

| SMILES | IC50 [nM] |
| --- | --- |
| CS(=O)(=O)c1cccc2nc(Nc3ccc(C(=O)N4CCOCC4)cc3)c3[nH]ncc3c12 [Example 94, (4-((9-(methylsulfonyl)-3H-pyrazolo[3,4-c]quinolin-4-yl)amino)phenyl)(morpholino)methanone] | 100 to 1000 |
| CC(C)(C)N1CCN(c2ccc(Nc3nc4cccc(S(C)(=O)=O)c4c4cn[nH]c34)cc2)CC1 [Example 95, N-(4-(4-(tert-butyl)piperazin-1-yl)phenyl)-9-(methylsulfonyl)-3H-pyrazolo[3,4-c]quinolin-4-amine] | 100 to 1000 |
| COc1ccc2nc(Nc3ccc(N4CCC(N5CCN(C)CC5)CC4)nc3)c3n[nH]cc3c2c1 [Example 96, 8-methoxy-N-(6-(4-(4-methylpiperazin-1-yl)piperidin-1-yl)pyridin-3-yl)-2H-pyrazolo[3,4-c]quinolin-4-amine] | 100 to 1000 |
| CN1CCN(C2CCN(c3ccc(Nc4nc5cccc(S(C)(=O)=O)c5c5cn[nH]c45)cc3)CC2)CC1 [Example 97, N-(4-(4-(4-methylpiperazin-1-yl)piperidin-1-yl)phenyl)-9-(methylsulfonyl)-3H-pyrazolo[3,4-c]quinolin-4-amine] | 100 to 1000 |
| COc1ccc(Nc2nc3cccc(S(C)(=O)=O)c3c3cn[nH]c23)cc1OC [Example 99, N-(3,4-dimethoxyphenyl)-9-(methylsulfonyl)-3H-pyrazolo[3,4-c]quinolin-4-amine] | 100 to 1000 |
| CN1CCN(c2ccc(Nc3nc4cccc(S(C)(=O)=O)c4c4cn[nH]c34)cn2)CC1 [Example 100, N-(6-(4-methylpiperazin-1-yl)pyridin-3-yl)-9-(methylsulfonyl)-3H-pyrazolo[3,4-c]quinolin-4-amine] | 100 to 1000 |
| COc1ccc2nc(Nc3cnn(C)c3C)c3n[nH]cc3c2c1 [Example 104, N-(1,5-dimethyl-1H-pyrazol-4-yl)-8-methoxy-2H-pyrazolo[3,4-c]quinolin-4-amine] | 100 to 1000 |
| COc1ccc2nc(Nc3cn(C)nc3C)c3n[nH]cc3c2c1 [Example 105, N-(1,3-dimethyl-1H-pyrazol-4-yl)-8-methoxy-2H-pyrazolo[3,4-c]quinolin-4-amine] | 100 to 1000 |
| CS(=O)(=O)c1cccc2nc(Nc3ccc(NCCO)cc3)c3[nH]ncc3c12 [Example 106, 2-((4-((9-(methylsulfonyl)-3H-pyrazolo[3,4-c]quinolin-4-yl)amino)phenyl)amino)ethan-1-ol] | 100 to 1000 |
| CS(=O)(=O)c1cccc(Nc2nc3cccc(S(C)(=O)=O)c3c3cn[nH]c23)c1 [Example 107, 9-(methylsulfonyl)-N-(3-(methylsulfonyl)phenyl)-3H-pyrazolo[3,4-c]quinolin-4-amine] | 100 to 1000 |
| COc1ccc2nc(Nc3cnn(C4CCN(C)CC4)c3)c3n[nH]cc3c2c1 [Example 111, 8-methoxy-N-(1-(1-methylpiperidin-4-yl)-1H-pyrazol-4-yl)-2H-pyrazolo[3,4-c]quinolin-4-amine] | 10 to 100 |
| COc1ccc2nc(Nc3cnn(C4CCN(C(C)=O)CC4)c3)c3n[nH]cc3c2c1 [Example 112, 1-(4-(4-((8-methoxy-2H-pyrazolo[3,4-c]quinolin-4-yl)amino)-1H-pyrazol-1-yl)piperidin-1-yl)ethan-1-one] | 10 to 100 |
| COCCn1cc(Nc2nc3ccc(S(C)(=O)=O)cc3c3cn[nH]c23)cn1 [Example 113, N-(1-(2-methoxyethyl)-1H-pyrazol-4-yl)-8-(methylsulfonyl)-3H-pyrazolo[3,4-c]quinolin-4-amine] | 10 to 100 |
| COc1ccc2nc(Nc3cnn(C)n3)c3n[nH]cc3c2c1 [Example 122, 8-methoxy-N-(2-methyl-2H-1,2,3-triazol-4-yl)-2H-pyrazolo[3,4-c]quinolin-4-amine] | 100 to 1000 |
| COc1cccc2nc(Nc3cnn(C4CCOCC4)c3)c3[nH]ncc3c12 [Example 142, 9-methoxy-N-(1-(tetrahydro-2H-pyran-4-yl)-1H-pyrazol-4-yl)-3H-pyrazolo[3,4-c]quinolin-4-amine] | < 10 |
| CN1CCC(n2cc(Nc3nc4ccc(S(C)(=O)=O)cc4c4cn[nH]c34)cn2)CC1 [Example 154, N-(1-(1-methylpiperidin-4-yl)-1H-pyrazol-4-yl)-8-(methylsulfonyl)-3H-pyrazolo[3,4-c]quinolin-4-amine] | < 10 |
| CC(=O)N1CCC(n2cc(Nc3nc4ccc(S(C)(=O)=O)cc4c4cn[nH]c34)cn2)CC1 [Example 155, 1-(4-(4-((8-(methylsulfonyl)-3H-pyrazolo[3,4-c]quinolin-4-yl)amino)-1H-pyrazol-1-yl)piperidin-1-yl)ethan-1-one] | < 10 |
